# Test results reported in patent publication US7025958B2, “Use of amidoamines to treat or prevent acanthamoeba and fungal infections” (Alcon, Inc., priority 2000, dated 2006).
# What was measured:
# Assay type in all cases: cell-based
# [1] = system: C. albicans ATCC 10231; assay: Dose/response of survivors against fungi, C. albicans
# Experimental: (§1) A 0.1% stock solution of Compound No. 4 was prepared. The compound was dissolved in TRIS buffer^1 by gently heating and swirling. The final pH was adjusted to 7.8 with 1N HCl. […] To prepare the samples, a 0.1% stock solution of Compound No. 4 was serially diluted in Mueller Hinton Broth (MHB)^2,3 (BBL) to provide solutions containing Compound No. 4 in concentrations of 0.01 w/v %, 0.001 w/v %, 0.0001 w/v %, and 0.00001 w/v %, respectively. Solutions containing 0.02 w/v % PHMB and 0.1 w/v % chlorhexidine, respectively, were utilized as controls.
# (§2) The samples were inoculated with low levels (approximately 1.0×10^3 organisms/mL) of the test organism. The test organisms included the fungi C. albicans ATCC 10231 and F. solani ATCC 36031. The samples were checked for survivors at 4, 24, and 48 hours post inoculation. The samples were serially diluted in Dey Engley neutralizing broth (DE) (Difco) and plated in duplicate using trypicase soy agar containing 0.07% asolectin and 0.5% Tween 80. The plates were incubated for 5 days at 20-25° C. and plate counts recorded.
# [2] = system: Acanthamoeba Strain Uni Tap Water 1501-3D (NNA cysts); assay: Minimum cysticidal concentration, strain Uni Tap Water 1501-3D; conditions: 24 hours exposure at 32° C.
# Experimental: (§3) Two different vehicles were utilized to prepare solutions containing Compound No. 4. The first vehicle was the same as the vehicle described in Formulation No. 4 (see Example 2, above), and the second vehicle was a 2 mM TRIS. HCl solution (pH 7.8).
# (§4) Minimum cysticidal levels of Compound No. 4 for Acanthamoeba keratitis strains was determined as follows. Briefly, 100 μl serial, two-fold dilutions were prepared across the rows of a microtitre plate. Control wells received only diluent. An equal volume of five strains of Acanthamoba cysts were added to the wells and the plates sealed and incubated at 32° C. for 24 hours. Using a multi-channel pipette, the solutions in the wells were removed and replaced with 200 μl of ¼ strength Lactated Ringer's solution and left at room temperature for 15 minutes. The washing procedure was repeated twice more before finally filling the wells with 100 μl of ¼ strength Lactated Ringer's solution containing live E. coli at an O.D.540 of 0.2. The plates were then sealed and incubated at 32° C. for up to 7 days.
# (§5) The MCC values for Compound No. 4 and chlorhexidine against the five Acanthamoeba strains (NNA cysts) tested are set forth in Table 4, below.
# [3] = system: Acanthamoeba Strain 1501-2g (NNA cysts); assay: Minimum cysticidal concentration, strain 1501-2g; conditions: 24 hours exposure at 32° C.
# Experimental: as §3, §4, §5
# [4] = system: Acanthamoeba polyphaga cysts (ATCC 30871); assay: Dose/response of survivors, Acanthamoeba polyphaga cysts in Mueller Hinton Broth
# Experimental: A 0.1% stock solution of Compound No. 4 was prepared. The compound was dissolved in TRIS buffer^1 by gently heating and swirling. The final pH was adjusted to 7.8 with 1N HCl. […] To prepare the samples, a 0.1% stock solution of Compound No. 4 was serially diluted in Mueller Hinton Broth (MHB)^2,3 (BBL) to provide concentrations of 0.01 w/v %, 0.001 w/v %, 0.0001 w/v %, and 0.00001 w/v %, respectively. Solutions containing 0.02 w/v % polyhexamethylene biguanide (PHMP) and 0.1 w/v % chlorhexidine, respectively, were also utilized as controls.
# The samples were inoculated with low levels (approximately 3.0×10^2 organisms/mL) of the test organism. The test organism was Acanthamoeba polyphaga cysts (ATCC 30871) produced 14 days in. PYG and then 14 days in Page's saline, followed by one month of refrigeration. The samples were checked for survivors at 4, 24, and 48 hours post inoculation. The samples were serially diluted in Dey-Engley neutralizing broth (DE) (Difco) and plated in quadruplicate in tissue culture plate wells containing non-nutrient agar overlaid with E. coli. Plates were sealed and incubated for 14 days at 30-35° C. Results were recorded and counts calculated using the Reed and Muench computation.
# [5] = system: Acanthamoeba Strain Ros (NNA cysts); assay: Minimum cysticidal concentration, strain Ros; conditions: 24 hours exposure at 32° C.
# Experimental: as §3, §4, §5
# [6] = system: F. solani ATCC 36031; assay: Dose/response of survivors against fungi, F. solani
# Experimental: as §1, §2
# [7] = system: Acanthamoeba Strain Watson (NNA cysts); assay: Minimum cysticidal concentration, strain Watson; conditions: 24 hours exposure at 32° C.
# Experimental: as §3, §4, §5
# [8] = system: Acanthamoeba Strain 1501-3D (NNA cysts); assay: Minimum cysticidal concentration, strain 1501-3D; conditions: 24 hours exposure at 32° C.
# Experimental: as §3, §4, §5
# [9] = 0.00001% Compound No. 4, 0 hours
# [10] = 0.00001% Compound No. 4, 4 hours
# [11] = 0.00001% Compound No. 4, 24 hours
# [12] = 0.00001% Compound No. 4, 48 hours
# [13] = 0.0001% Compound No. 4, 0 hours
# [14] = 0.0001% Compound No. 4, 4 hours
# [15] = 0.0001% Compound No. 4, 24 hours
# [16] = 0.0001% Compound No. 4, 48 hours
# [17] = 0.001% Compound No. 4, 24 hours
# [18] = 0.001% Compound No. 4, 48 hours
compound,measurement,setting,value
"[H]/N=C(\N/C(=N/[H])NCCCCCCNC(=N)NC(=N)Nc1ccc(Cl)cc1)Nc1ccc(Cl)cc1 [Chlorhexidine, chlorhexidine, reference compound]",Number of Surviving Organisms,"[1]; 0.1% Chlorhexidine, 0 hours",3.3 × 10^3
same,Number of Surviving Organisms,"[1]; 0.1% Chlorhexidine, 4 hours",<1
same,Number of Surviving Organisms,"[1]; 0.1% Chlorhexidine, 24 hours",<1
same,Number of Surviving Organisms,"[1]; 0.1% Chlorhexidine, 48 hours",<1
same,Minimum Cysticidal Concentration,[2],26.0 micrograms/milliliter
same,Minimum Cysticidal Concentration,[3],52.1 micrograms/milliliter
same,Number of Surviving Organisms,"[4]; 0.1% Chlorhexidine, 0 hrs",3.2 × 10^2
same,Number of Surviving Organisms,"[4]; 0.1% Chlorhexidine, 4 hrs",<10
same,Number of Surviving Organisms,"[4]; 0.1% Chlorhexidine, 24 hrs",<10
same,Number of Surviving Organisms,"[4]; 0.1% Chlorhexidine, 48 hrs",<10
same,Minimum Cysticidal Concentration,[5],31.25 micrograms/milliliter
same,Number of Surviving Organisms,"[6]; 0.1% Chlorhexidine, 0 hours",4.9 × 10^3
same,Number of Surviving Organisms,"[6]; 0.1% Chlorhexidine, 4 hours",<1
same,Number of Surviving Organisms,"[6]; 0.1% Chlorhexidine, 24 hours",<1
same,Number of Surviving Organisms,"[6]; 0.1% Chlorhexidine, 48 hours",<1
same,Minimum Cysticidal Concentration,[7],62.5 micrograms/milliliter
same,Minimum Cysticidal Concentration,[8],31.3 micrograms/milliliter
"CCCCCCCCCCCCCC(=O)NCCCN(C)C [Compound No. 4, N,N-Dimethyl-N′-tetradecanoyl-1,3-propylenediamine]",Number of Surviving Organisms,[1]; [9],3.3 × 10^3
same,Number of Surviving Organisms,[1]; [10],3.2 × 10^3
same,Number of Surviving Organisms,[1]; [11],2.5 × 10^4
same,Number of Surviving Organisms,[1]; [12],1.3 × 10^5
same,Number of Surviving Organisms,[1]; [13],3.3 × 10^3
same,Number of Surviving Organisms,[1]; [14],3.2 × 10^3
same,Number of Surviving Organisms,[1]; [15],1.5 × 10^4
same,Number of Surviving Organisms,[1]; [16],1.3 × 10^5
same,Number of Surviving Organisms,"[1]; 0.001% Compound No. 4, 0 hours",3.3 × 10^3
same,Number of Surviving Organisms,"[1]; 0.001% Compound No. 4, 4 hours",4.3 × 10^1
same,Number of Surviving Organisms,[1]; [17],1.0 × 10^1
same,Number of Surviving Organisms,[1]; [18],3.4 × 10^1
same,Number of Surviving Organisms,"[1]; 0.01% Compound No. 4, 0 hours",3.3 × 10^3
same,Number of Surviving Organisms,"[1]; 0.01% Compound No. 4, 4 hours",<1
same,Number of Surviving Organisms,"[1]; 0.01% Compound No. 4, 24 hours",<1
same,Number of Surviving Organisms,"[1]; 0.01% Compound No. 4, 48 hours",<1
same,Number of Surviving Organisms,"[4]; 0.00001% Compound No. 4, 0 hrs",3.2 × 10^2
same,Number of Surviving Organisms,"[4]; 0.00001% Compound No. 4, 4 hrs",3.2 × 10^3
same,Number of Surviving Organisms,"[4]; 0.00001% Compound No. 4, 24 hrs",3.2 × 10^3
same,Number of Surviving Organisms,"[4]; 0.00001% Compound No. 4, 48 hrs",3.2 × 10^3
same,Number of Surviving Organisms,"[4]; 0.0001% Compound No. 4, 0 hrs",3.2 × 10^2
same,Number of Surviving Organisms,"[4]; 0.0001% Compound No. 4, 4 hrs",3.2 × 10^3
same,Number of Surviving Organisms,"[4]; 0.0001% Compound No. 4, 24 hrs",2.1 × 10^3
same,Number of Surviving Organisms,"[4]; 0.0001% Compound No. 4, 48 hrs",2.1 × 10^3
same,Number of Surviving Organisms,"[4]; 0.001% Compound No. 4, 0 hrs",3.2 × 10^2
same,Number of Surviving Organisms,"[4]; 0.001% Compound No. 4, 4 hrs",3.2 × 10^2
same,Number of Surviving Organisms,"[4]; 0.001% Compound No. 4, 24 hrs",1.7 × 10^1
same,Number of Surviving Organisms,"[4]; 0.001% Compound No. 4, 48 hrs",<10
same,Number of Surviving Organisms,"[4]; 0.01% Compound No. 4, 0 hrs",3.2 × 10^2
same,Number of Surviving Organisms,"[4]; 0.01% Compound No. 4, 4 hrs",<10
same,Number of Surviving Organisms,"[4]; 0.01% Compound No. 4, 24 hrs",<10
same,Number of Surviving Organisms,"[4]; 0.01% Compound No. 4, 48 hrs",<10
same,Number of Surviving Organisms,[6]; [9],4.9 × 10^3
same,Number of Surviving Organisms,[6]; [10],5.9 × 10^3
same,Number of Surviving Organisms,[6]; [11],1.0 × 10^4
same,Number of Surviving Organisms,[6]; [12],4.8 × 10^3
same,Number of Surviving Organisms,[6]; [13],4.9 × 10^3
same,Number of Surviving Organisms,[6]; [14],6.9 × 10^3
same,Number of Surviving Organisms,[6]; [15],9.5 × 10^3
same,Number of Surviving Organisms,[6]; [16],1.6 × 10^4
same,Number of Surviving Organisms,"[6]; 0.001% Compound No. 4, 0 hours",4.9 × 10^3
same,Number of Surviving Organisms,"[6]; 0.001% Compound No. 4, 4 hours",1.0 × 10^1
same,Number of Surviving Organisms,[6]; [17],<1
same,Number of Surviving Organisms,[6]; [18],<1
same,Number of Surviving Organisms,"[6]; 0.01% Compound No. 4, 0 hours",4.9 × 10^3
same,Number of Surviving Organisms,"[6]; 0.01% Compound No. 4, 4 hours",<1
same,Number of Surviving Organisms,"[6]; 0.01% Compound No. 4, 24 hours",<1
same,Number of Surviving Organisms,"[6]; 0.01% Compound No. 4, 48 hours",<1
"polyhexamethylene biguanide [PHMB, reference compound]",Number of Surviving Organisms,"[1]; 0.02% PHMB, 0 hours",3.3 × 10^3
same,Number of Surviving Organisms,"[1]; 0.02% PHMB, 4 hours",<1
same,Number of Surviving Organisms,"[1]; 0.02% PHMB, 24 hours",<1
same,Number of Surviving Organisms,"[1]; 0.02% PHMB, 48 hours",<1
same,Number of Surviving Organisms,"[4]; 0.02% PHMB, 0 hrs",3.2 × 10^2
same,Number of Surviving Organisms,"[4]; 0.02% PHMB, 4 hrs",<10
same,Number of Surviving Organisms,"[4]; 0.02% PHMB, 24 hrs",<10
same,Number of Surviving Organisms,"[4]; 0.02% PHMB, 48 hrs",<10
same,Number of Surviving Organisms,"[6]; 0.02% PHMB, 0 hours",4.9 × 10^3
same,Number of Surviving Organisms,"[6]; 0.02% PHMB, 4 hours",<1
same,Number of Surviving Organisms,"[6]; 0.02% PHMB, 24 hours",<1
same,Number of Surviving Organisms,"[6]; 0.02% PHMB, 48 hours",<1
